“And” between values parts separate entries of the source, which are not always exact repeats. Equal entries are not always repeated.
Experiments:
[1] = molecular target: Tripartite motif-containing protein 66 (Homo sapiens) (UniProt O15016); test: Thermal Shift Assay. Domain start/stop: M1091-S1218; conditions: Compound concentration 10.0 uM, Protein concentration 2.0 uM
[2] = molecular target: ATPase family AAA domain-containing protein 2B (Homo sapiens) (UniProt Q9ULI0); conditions: Compound concentration 10.0 uM, Protein concentration 2.0 uM
[3] = molecular target: Histone acetyltransferase p300 (Homo sapiens) (UniProt Q09472); test: Thermal Shift Assay. Domain start/stop: A1040-S1171; conditions: Compound concentration 10.0 uM, Protein concentration 2.0 uM
[4] = molecular target: Chromatin remodeling regulator CECR2 (Homo sapiens) (UniProt Q9BXF3); conditions: Compound concentration 20.0 uM, Protein concentration 12.5 uM
Chain of Chromatin remodeling regulator CECR2 (Homo sapiens) (Q9BXF3 whole entry, looked up): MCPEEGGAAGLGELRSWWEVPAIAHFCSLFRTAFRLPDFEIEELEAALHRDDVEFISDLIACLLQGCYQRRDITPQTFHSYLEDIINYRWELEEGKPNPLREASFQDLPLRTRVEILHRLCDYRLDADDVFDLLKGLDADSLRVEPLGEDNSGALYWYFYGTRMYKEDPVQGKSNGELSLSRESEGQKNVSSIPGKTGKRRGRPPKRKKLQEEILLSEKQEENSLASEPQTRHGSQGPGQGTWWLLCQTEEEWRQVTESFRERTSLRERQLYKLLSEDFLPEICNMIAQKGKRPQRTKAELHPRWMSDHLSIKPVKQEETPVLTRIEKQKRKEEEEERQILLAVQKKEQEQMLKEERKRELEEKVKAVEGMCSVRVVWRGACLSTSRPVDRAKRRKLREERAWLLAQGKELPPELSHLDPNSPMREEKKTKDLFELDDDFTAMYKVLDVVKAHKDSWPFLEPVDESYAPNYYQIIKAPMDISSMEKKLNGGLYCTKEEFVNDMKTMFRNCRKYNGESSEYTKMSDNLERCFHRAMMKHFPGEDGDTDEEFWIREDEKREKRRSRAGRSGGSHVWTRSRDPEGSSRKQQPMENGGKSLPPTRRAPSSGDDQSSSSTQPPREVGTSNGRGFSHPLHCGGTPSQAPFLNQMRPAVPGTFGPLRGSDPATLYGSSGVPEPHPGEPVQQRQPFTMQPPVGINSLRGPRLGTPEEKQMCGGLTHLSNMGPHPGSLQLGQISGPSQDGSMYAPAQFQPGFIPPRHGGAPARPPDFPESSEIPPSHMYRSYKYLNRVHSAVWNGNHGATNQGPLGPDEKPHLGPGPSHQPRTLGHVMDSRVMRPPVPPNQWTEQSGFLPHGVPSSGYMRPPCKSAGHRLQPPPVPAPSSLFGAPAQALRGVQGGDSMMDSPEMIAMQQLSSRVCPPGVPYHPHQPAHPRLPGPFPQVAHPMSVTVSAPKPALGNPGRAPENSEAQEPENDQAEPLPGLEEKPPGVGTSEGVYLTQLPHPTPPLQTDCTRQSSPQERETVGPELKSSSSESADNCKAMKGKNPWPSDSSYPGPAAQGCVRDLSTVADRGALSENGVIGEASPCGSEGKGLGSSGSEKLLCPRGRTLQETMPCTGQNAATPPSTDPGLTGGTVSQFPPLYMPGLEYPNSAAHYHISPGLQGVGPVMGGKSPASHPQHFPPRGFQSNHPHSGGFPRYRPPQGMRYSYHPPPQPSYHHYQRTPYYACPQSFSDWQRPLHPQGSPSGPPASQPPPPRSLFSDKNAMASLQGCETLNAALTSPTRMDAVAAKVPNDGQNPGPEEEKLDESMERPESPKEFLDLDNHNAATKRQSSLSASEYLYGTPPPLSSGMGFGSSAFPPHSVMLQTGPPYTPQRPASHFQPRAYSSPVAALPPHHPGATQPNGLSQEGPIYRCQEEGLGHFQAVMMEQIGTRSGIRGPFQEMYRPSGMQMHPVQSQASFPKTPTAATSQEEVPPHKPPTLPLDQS

[5] = molecular target: SWI/SNF-related matrix-associated actin-dependent regulator of chromatin subfamily A member 4 (Homo sapiens) (UniProt P51532); conditions: Compound concentration 10.0 uM, Protein concentration 2.0 uM
[6] = molecular target: Protein polybromo-1 (Homo sapiens) (UniProt Q86U86); conditions: Compound concentration 10.0 uM, Protein concentration 2.0 uM
Chain of Protein polybromo-1 (Homo sapiens) (Q86U86 whole entry, the tested form may be a part): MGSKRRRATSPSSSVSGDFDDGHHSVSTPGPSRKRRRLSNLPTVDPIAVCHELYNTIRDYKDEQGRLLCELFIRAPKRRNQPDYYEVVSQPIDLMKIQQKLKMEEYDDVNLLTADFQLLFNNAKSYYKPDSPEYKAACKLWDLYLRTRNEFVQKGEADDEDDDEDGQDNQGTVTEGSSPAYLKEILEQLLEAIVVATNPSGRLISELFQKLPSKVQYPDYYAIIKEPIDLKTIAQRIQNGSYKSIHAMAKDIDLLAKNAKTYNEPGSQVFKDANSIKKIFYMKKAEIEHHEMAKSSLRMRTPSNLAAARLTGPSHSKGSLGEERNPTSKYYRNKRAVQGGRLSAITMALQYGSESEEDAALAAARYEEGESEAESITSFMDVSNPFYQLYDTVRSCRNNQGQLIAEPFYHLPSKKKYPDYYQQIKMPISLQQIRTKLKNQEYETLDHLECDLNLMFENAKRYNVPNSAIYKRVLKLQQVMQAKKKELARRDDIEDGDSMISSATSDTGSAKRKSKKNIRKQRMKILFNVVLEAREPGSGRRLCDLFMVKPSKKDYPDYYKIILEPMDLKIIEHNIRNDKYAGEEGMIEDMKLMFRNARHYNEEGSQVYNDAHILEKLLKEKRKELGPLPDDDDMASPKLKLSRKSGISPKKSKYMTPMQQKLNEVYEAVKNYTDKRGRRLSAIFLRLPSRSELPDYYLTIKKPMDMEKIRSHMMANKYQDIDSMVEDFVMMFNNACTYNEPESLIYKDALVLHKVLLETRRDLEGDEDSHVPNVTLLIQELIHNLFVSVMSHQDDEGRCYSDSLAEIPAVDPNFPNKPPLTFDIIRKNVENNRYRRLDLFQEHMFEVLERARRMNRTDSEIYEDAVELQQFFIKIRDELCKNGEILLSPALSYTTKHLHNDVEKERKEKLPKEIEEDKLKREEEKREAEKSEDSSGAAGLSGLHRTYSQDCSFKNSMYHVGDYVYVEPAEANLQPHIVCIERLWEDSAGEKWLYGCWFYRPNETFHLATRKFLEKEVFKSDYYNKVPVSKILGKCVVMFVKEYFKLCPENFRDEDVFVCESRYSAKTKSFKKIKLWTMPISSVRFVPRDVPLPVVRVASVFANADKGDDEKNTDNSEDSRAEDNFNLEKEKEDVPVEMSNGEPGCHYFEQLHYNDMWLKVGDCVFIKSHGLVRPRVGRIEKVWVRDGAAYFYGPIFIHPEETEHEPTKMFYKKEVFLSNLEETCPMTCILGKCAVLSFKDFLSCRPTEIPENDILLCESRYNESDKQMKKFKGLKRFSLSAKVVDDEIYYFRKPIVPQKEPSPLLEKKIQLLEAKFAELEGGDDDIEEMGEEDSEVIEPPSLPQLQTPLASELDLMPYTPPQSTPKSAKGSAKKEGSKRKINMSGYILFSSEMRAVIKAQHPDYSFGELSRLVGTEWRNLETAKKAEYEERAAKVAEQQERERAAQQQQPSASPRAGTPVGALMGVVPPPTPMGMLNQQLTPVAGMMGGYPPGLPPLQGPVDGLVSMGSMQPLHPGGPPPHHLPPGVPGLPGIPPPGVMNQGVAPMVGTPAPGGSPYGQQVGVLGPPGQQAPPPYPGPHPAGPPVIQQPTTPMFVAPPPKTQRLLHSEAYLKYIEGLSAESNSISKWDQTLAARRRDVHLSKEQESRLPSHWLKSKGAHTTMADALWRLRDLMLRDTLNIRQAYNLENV

[7] = molecular target: Protein polybromo-1 (Homo sapiens) (UniProt Q86U86); conditions: Compound concentration 10.0 uM, Protein concentration 2.0 uM; remark: listed apart in the source
[8] = molecular target: Nucleosome-remodeling factor subunit BPTF (Homo sapiens) (UniProt Q12830); conditions: Compound concentration 10.0 uM, Protein concentration 2.0 uM
[9] = molecular target: Bromodomain adjacent to zinc finger domain protein 2B (Homo sapiens) (UniProt Q9UIF8); test: Alphascreen assay. Domain start/stop: S1858-S1972; conditions: Compound concentration 25.0 uM, Protein concentration 25.0 uM
[10] = molecular target: Nuclear body protein SP140 (Homo sapiens) (UniProt Q13342); conditions: Compound concentration 10.0 uM, Protein concentration 2.0 uM
[11] = molecular target: T1, Bromodomain-containing protein 4 (Homo sapiens, UniProt O60885); test: Alphascreen assay. Binding to BRD4A (domain start/stop: N44-E168) by alphascreen assay
[12] = molecular target: Protein polybromo-1 (Homo sapiens) (UniProt Q86U86); conditions: Compound concentration 10.0 uM, Protein concentration 2.0 uM; remark: listed apart in the source
[13] = molecular target: Bromodomain adjacent to zinc finger domain protein 2B (Homo sapiens) (UniProt Q9UIF8); conditions: Compound concentration 10.0 uM, Protein concentration 2.0 uM
[14] = molecular target: Bromodomain adjacent to zinc finger domain protein 2A (Homo sapiens) (UniProt Q9UIF9); conditions: Compound concentration 10.0 uM, Protein concentration 2.0 uM
[15] = molecular target: Chromatin remodeling regulator CECR2 (Homo sapiens) (UniProt Q9BXF3); conditions: Compound concentration 10.0 uM, Protein concentration 2.0 uM
[16] = molecular target: Transcription initiation factor TFIID subunit 1 (Homo sapiens) (UniProt P21675); conditions: Compound concentration 10.0 uM, Protein concentration 2.0 uM
Chain of Transcription initiation factor TFIID subunit 1 (Homo sapiens) (P21675 whole entry): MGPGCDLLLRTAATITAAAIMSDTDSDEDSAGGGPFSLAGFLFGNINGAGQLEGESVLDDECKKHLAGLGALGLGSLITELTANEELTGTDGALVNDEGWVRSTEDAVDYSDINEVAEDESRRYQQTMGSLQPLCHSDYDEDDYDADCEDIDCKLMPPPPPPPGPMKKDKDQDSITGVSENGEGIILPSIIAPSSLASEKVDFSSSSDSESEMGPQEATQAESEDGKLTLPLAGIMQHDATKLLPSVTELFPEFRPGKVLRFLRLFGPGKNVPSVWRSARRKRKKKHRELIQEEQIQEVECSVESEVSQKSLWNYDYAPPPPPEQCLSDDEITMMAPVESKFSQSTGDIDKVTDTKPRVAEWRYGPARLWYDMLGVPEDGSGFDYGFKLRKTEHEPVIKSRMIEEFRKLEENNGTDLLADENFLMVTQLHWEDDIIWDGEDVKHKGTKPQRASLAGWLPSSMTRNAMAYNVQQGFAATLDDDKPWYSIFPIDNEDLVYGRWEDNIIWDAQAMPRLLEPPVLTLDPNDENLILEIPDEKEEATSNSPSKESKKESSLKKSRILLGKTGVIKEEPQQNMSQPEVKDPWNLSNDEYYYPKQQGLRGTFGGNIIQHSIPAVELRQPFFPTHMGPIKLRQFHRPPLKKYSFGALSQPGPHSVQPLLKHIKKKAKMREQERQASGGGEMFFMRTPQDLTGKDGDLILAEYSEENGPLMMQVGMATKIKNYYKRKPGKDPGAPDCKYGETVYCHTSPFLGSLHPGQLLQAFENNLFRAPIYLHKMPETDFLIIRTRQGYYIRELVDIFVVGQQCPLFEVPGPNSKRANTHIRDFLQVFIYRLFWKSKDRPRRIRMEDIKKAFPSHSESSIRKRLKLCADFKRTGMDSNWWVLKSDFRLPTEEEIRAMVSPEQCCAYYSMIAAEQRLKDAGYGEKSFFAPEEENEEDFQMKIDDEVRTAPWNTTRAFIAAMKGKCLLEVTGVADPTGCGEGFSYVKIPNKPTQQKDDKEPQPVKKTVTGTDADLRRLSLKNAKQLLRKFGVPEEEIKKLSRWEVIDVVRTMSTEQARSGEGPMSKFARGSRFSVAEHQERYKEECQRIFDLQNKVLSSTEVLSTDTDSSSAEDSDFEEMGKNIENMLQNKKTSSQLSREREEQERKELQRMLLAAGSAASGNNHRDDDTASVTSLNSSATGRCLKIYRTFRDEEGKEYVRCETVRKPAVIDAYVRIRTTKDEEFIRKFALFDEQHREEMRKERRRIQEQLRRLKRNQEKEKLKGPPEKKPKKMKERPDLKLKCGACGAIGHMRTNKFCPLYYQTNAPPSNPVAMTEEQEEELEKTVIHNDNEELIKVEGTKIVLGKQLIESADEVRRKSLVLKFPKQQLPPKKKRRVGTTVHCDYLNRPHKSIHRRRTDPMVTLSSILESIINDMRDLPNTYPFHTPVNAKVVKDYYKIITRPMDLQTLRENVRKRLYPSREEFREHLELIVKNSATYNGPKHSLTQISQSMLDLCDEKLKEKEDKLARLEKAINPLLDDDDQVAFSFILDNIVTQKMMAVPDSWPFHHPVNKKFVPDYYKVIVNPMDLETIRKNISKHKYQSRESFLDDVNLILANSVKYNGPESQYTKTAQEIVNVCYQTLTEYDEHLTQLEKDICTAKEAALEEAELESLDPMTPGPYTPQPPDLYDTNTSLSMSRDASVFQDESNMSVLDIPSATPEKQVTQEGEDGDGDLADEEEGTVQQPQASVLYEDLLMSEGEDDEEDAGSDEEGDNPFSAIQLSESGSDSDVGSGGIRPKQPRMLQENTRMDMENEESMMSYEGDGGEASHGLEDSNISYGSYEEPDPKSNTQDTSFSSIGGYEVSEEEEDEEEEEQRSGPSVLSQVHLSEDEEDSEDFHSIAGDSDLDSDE

[17] = molecular target: Peregrin (Homo sapiens) (UniProt P55201); conditions: Compound concentration 10.0 uM, Protein concentration 2.0 uM
[18] = molecular target: Histone acetyltransferase p300 (Homo sapiens) (UniProt Q09472); conditions: Compound concentration 10.0 uM, Protein concentration 2.0 uM
[19] = molecular target: Transcription initiation factor TFIID subunit 1 (Homo sapiens) (UniProt P21675); conditions: Compound concentration 10.0 uM, Protein concentration 2.0 uM; remark: listed apart in the source
[20] = molecular target: Transcription intermediary factor 1-beta (Homo sapiens) (UniProt Q13263); conditions: Compound concentration 10.0 uM, Protein concentration 2.0 uM
[21] = molecular target: Bromodomain-containing protein 2 (Homo sapiens) (UniProt P25440); conditions: Compound concentration 10.0 uM, Protein concentration 2.0 uM
[22] = molecular target: Bromodomain-containing protein 2 (Homo sapiens) (UniProt P25440); conditions: Compound concentration 10.0 uM, Protein concentration 2.0 uM; remark: listed apart in the source
[23] = molecular target: Histone acetyltransferase KAT2A (Homo sapiens) (UniProt Q92830); conditions: Compound concentration 10.0 uM, Protein concentration 2.0 uM
[24] = molecular target: Bromodomain-containing protein 3 (Homo sapiens) (UniProt Q15059); test: Thermal Shift Assay. Domain start/stop: P24-E144; conditions: Compound concentration 10.0 uM, Protein concentration 2.0 uM
[25] = molecular target: Bromodomain adjacent to zinc finger domain protein 1A (Homo sapiens) (UniProt Q9NRL2); conditions: Compound concentration 10.0 uM, Protein concentration 2.0 uM
[26] = molecular target: Protein polybromo-1 (Homo sapiens) (UniProt Q86U86); test: Thermal Shift Assay. Domain start/stop: R487-D598; conditions: Compound concentration 10.0 uM, Protein concentration 2.0 uM
[27] = molecular target: Bromodomain and WD repeat-containing protein 3 (Homo sapiens) (UniProt Q6RI45); conditions: Compound concentration 10.0 uM, Protein concentration 2.0 uM
[28] = molecular target: Transcription intermediary factor 1-alpha (Homo sapiens) (UniProt O15164); conditions: Compound concentration 10.0 uM, Protein concentration 2.0 uM
[29] = molecular target: CREB-binding protein (Homo sapiens) (UniProt Q92793); conditions: Compound concentration 10.0 uM, Protein concentration 2.0 uM
[30] = molecular target: SWI/SNF-related matrix-associated actin-dependent regulator of chromatin subfamily A member 2 (Homo sapiens) (UniProt P51531); conditions: Compound concentration 10.0 uM, Protein concentration 2.0 uM
[31] = molecular target: PH-interacting protein (Homo sapiens) (UniProt Q8WWQ0); conditions: Compound concentration 50.0 uM, Protein concentration 0.025 uM
[32] = molecular target: Transcription initiation factor TFIID subunit 1-like (Homo sapiens) (UniProt Q8IZX4); conditions: Compound concentration 10.0 uM, Protein concentration 2.0 uM
[33] = molecular target: Protein polybromo-1 (Homo sapiens) (UniProt Q86U86); test: Thermal Shift Assay. Domain start/stop: H23-D159; conditions: Compound concentration 10.0 uM, Protein concentration 2.0 uM
[34] = molecular target: ATPase family AAA domain-containing protein 2 (Homo sapiens) (UniProt Q6PL18); conditions: Compound concentration 10.0 uM, Protein concentration 2.0 uM
[35] = molecular target: Protein polybromo-1 (Homo sapiens) (UniProt Q86U86); conditions: Compound concentration 10.0 uM, Protein concentration 2.0 uM; remark: listed apart in the source
[36] = molecular target: Bromodomain-containing protein 9 (Homo sapiens) (UniProt Q9H8M2); conditions: Compound concentration 10.0 uM, Protein concentration 2.0 uM
[37] = molecular target: PH-interacting protein (Homo sapiens) (UniProt Q8WWQ0); conditions: Compound concentration 10.0 uM, Protein concentration 2.0 uM
[38] = molecular target: Bromodomain and WD repeat-containing protein 1 (Homo sapiens) (UniProt Q9NSI6); conditions: Compound concentration 10.0 uM, Protein concentration 2.0 uM
[39] = molecular target: Bromodomain-containing protein 1 (Homo sapiens) (UniProt O95696); conditions: Compound concentration 10.0 uM, Protein concentration 2.0 uM
[40] = molecular target: Histone-lysine N-methyltransferase ASH1L (Homo sapiens) (UniProt Q9NR48); conditions: Compound concentration 10.0 uM, Protein concentration 2.0 uM
[41] = molecular target: T1, Bromodomain-containing protein 4; conditions: Compound concentration 10.0 uM, Protein concentration 2.0 uM
[42] = molecular target: Bromodomain-containing protein 3 (Homo sapiens) (UniProt Q15059); conditions: Compound concentration 10.0 uM, Protein concentration 2.0 uM
[43] = molecular target: Nuclear body protein SP140-like protein (Homo sapiens) (UniProt Q9H930); conditions: Compound concentration 10.0 uM, Protein concentration 2.0 uM
[44] = molecular target: Peregrin (Homo sapiens) (UniProt P55201); conditions: Compound concentration 10.0 uM, Protein concentration 2.0 uM; remark: listed apart in the source
[45] = molecular target: ATPase family AAA domain-containing protein 2 (Homo sapiens) (UniProt Q6PL18); conditions: Compound concentration 25.0 uM, Protein concentration 200.0 uM
Description: Alphascreen assay. Domain start/stop: Q981-R1108

[46] = molecular target: Histone acetyltransferase KAT2B (Homo sapiens) (UniProt Q92831); conditions: Compound concentration 10.0 uM, Protein concentration 2.0 uM
[47] = molecular target: Transcription initiation factor TFIID subunit 1-like (Homo sapiens) (UniProt Q8IZX4); conditions: Compound concentration 10.0 uM, Protein concentration 2.0 uM; remark: listed apart in the source
[48] = molecular target: Bromodomain testis-specific protein (Homo sapiens) (UniProt Q58F21); conditions: Compound concentration 10.0 uM, Protein concentration 2.0 uM
[49] = molecular target: Bromodomain and PHD finger-containing protein 3 (Homo sapiens) (UniProt Q9ULD4); conditions: Compound concentration 10.0 uM, Protein concentration 2.0 uM
[50] = molecular target: Bromodomain testis-specific protein (Homo sapiens) (UniProt Q58F21); conditions: Compound concentration 10.0 uM, Protein concentration 2.0 uM; remark: listed apart in the source

ΔTm [1]: 0.82 °C | ΔTm [2]: 0.45 °C | ΔTm [3]: 9.68 °C | inhibition [4]: 58.8% | ΔTm [5]: 0.34 °C | ΔTm [6]: 0.23 °C | ΔTm [7]: 0.46 °C | ΔTm [8]: 0.21 °C and -1.05 °C | inhibition [9]: 24% | ΔTm [10]: 0.37 °C | IC50 [11]: 27.8 µM and 7.12 µM | ΔTm [12]: 0.46 °C and -0.03 °C | ΔTm [13]: 0.17 °C | ΔTm [14]: -0.18 °C | ΔTm [15]: 0.18 °C and 1.55 °C | ΔTm [16]: -0.12 °C | ΔTm [17]: 1.46 °C | ΔTm [18]: 10.2 °C | ΔTm [19]: 0.26 °C and 0.07 °C | ΔTm [20]: 0.49 °C and -0.34 °C | ΔTm [21]: 1.41 °C | ΔTm [22]: 0.99 °C | ΔTm [23]: 0.17 °C | ΔTm [24]: 1.83 °C | ΔTm [25]: -0.45 °C | ΔTm [26]: 0.23 °C | ΔTm [27]: 0.97 °C | ΔTm [28]: 0.67 °C | ΔTm [29]: 10.2 °C and 9.55 °C | ΔTm [30]: 0.06 °C | inhibition [31]: 35.5% and 42.4% | ΔTm [32]: 1.11 °C | ΔTm [33]: 0.03 °C | ΔTm [34]: -2.5 °C | ΔTm [35]: 0.12 °C | ΔTm [36]: -0.12 °C and -0.5 °C | ΔTm [37]: 0.57 °C | ΔTm [38]: 0.96 °C | ΔTm [39]: 0.43 °C and 0.36 °C | ΔTm [40]: -0.29 °C | ΔTm [41]: 0.56 °C | ΔTm [42]: 1.25 °C | ΔTm [43]: 0.17 °C | ΔTm [44]: 0.42 °C | inhibition [45]: 24.4% | ΔTm [46]: 0.46 °C | ΔTm [47]: -0.06 °C | ΔTm [48]: 0.66 °C | ΔTm [49]: 0.46 °C | ΔTm [50]: 0.37 °C
SMILES: COc1ccc(CCc2nc3cc(-c4c(C)noc4C)ccc3n2C[C@H](C)N2CCOCC2)cc1Cl

— ChEMBL document CHEMBL4649984, “CBP30, a selective CBP/p300 bromodomain inhibitor, suppresses human Th17 responses” (Proc Natl Acad Sci U S A, 2015)
